Laboratory results: patent US12637452B2, “Crystalline forms of a substituted imidazopyridine compound and use thereof as P2X3 modulator” (GlaxoSmithKline Intellectual Property (No. 3) Limited, priority 2018, dated 2026)
Converted amounts (≈) assume the structure as drawn.

Columns and labels:
Assay type in all cases: physicochemical
[1] = Approximate solubility of starting material in 28 solvents at RT; settings: 25 °C, thermodynamic from solid, starting material Form A0
Experimental: Approximate solubility of starting material (Compound 1, Form A0) was determined in 28 solvents at RT (25±3° C.). ˜2 mg of the starting material was added into each 3-mL glass vial. Solvents were then added stepwise (50/50/200/700 μL per step) into the vials until the solids were dissolved visually or a total volume of 1 mL was reached. Solubility results summarized in Table 2 were used to guide the solvent selection in screening design.

[2] = Dynamic vapor sorption (DVS) test, water uptake and form stability as a function of relative humidity
Experimental: DVS test was performed using an SMS (Surface Measurement Systems) DVS Intrinsic instrument. The relative humidity were calibrated against deliquescence point of LiCl, Mg(NO3)2 and KCl. The following instrument parameters were used at 25° C. and 40° C.:
DVS test was performed for Type A* family to investigate its form stability as a function of relative humidity. The DVS test was first conducted in a couple of cycles with different ends (30% and 95% RH) at 25° C. The samples were equilibrated at each RH point until wt % change was lower than 0.002% or the total time reached 3 hrs.
The crystal forms after DVS test were detected by XRPD. For the cycle (ambient RH-95% RH-0% RH-30% RH), the crystal form after DVS test was determined to be Type A (FIG. 5), corresponding to the ambient humidity (61.5% RH) when performing XRPD analysis. While for the cycle (ambient RH-95% RH-0% RH-95% RH), Type A1 was observed after DVS test (FIG. 7), corresponding to the ambient humidity (66.3% RH) when performing XRPD analysis.
DVS test was also conducted in the cycle (ambient RH-95% RH-0% RH-95% RH) at 40° C.

[3] = Theoretical maxima water uptake of a monohydrate from the single crystal structure; settings: only lattice waters considered
From the text: A single crystal structure of Compound 1 Type A* family (form Type A0) was collected using crystals grown in ACN/H2O (1:3, v/v). Data were collected at 123 K using a Bruker D8 VENTURE diffractometer (Mo/Kα λ=0.71073 Å) with the following instrument parameters:
From the single crystal structure, there are four possible hydration sites in the unit cell. If each of the hydration sites is occupied by one water molecule, a monohydrate would be expected, which should correspond to the theoretical maxima water incorporation in the crystal lattice of Type A* family crystals. For a monohydrate, if only lattice waters are considered, the theoretical maxima water uptake is 3.9%, which is very close to the experimental DVS results (˜4.1-4.2% at 100% RH at 25° C.). In addition, there may be less than one water molecule on each hydration site because of the disorder, and a stoichiometry of less than 1:1 for water:API may be expected in an actual Type A* family crystal which is consistent with the almost linear increase/decrease of water content as a function of humidity in the DVS test.

**Q.** What does the source list for `CNC(=O)c1cc(F)c(-c2nc3cc(C)ccn3c2C[C@H]2CN(C(=O)OC)CCO2)c(F)c1` [Compound 1, methyl (S)-2-((2-(2,6-difluoro-4-(methylcarbamoyl)phenyl)-7-methylimidazo[1,2-a]pyridin-3-yl)methyl)morpholine-4-carboxylate]?
**A.** solubility ([1]; organic solvent or mixture, solvent 1,2-Dichloroethane, RT (25±3° C.)): > 38000 µg/mL; solubility ([1]; organic solvent or mixture, solvent 1,4-Dioxane, RT (25±3° C.)): 2400 to 8000 µg/mL (≈ 5.23 to 17.4 mM); solubility ([1]; organic solvent or mixture, solvent 1-Propanol, RT (25±3° C.)): > 38000 µg/mL; solubility ([1]; organic solvent or mixture, solvent 2-MeTHF, RT (25±3° C.)): 1800 to 6000 µg/mL (≈ 3.93 to 13.1 mM); solubility ([1]; organic solvent or mixture, solvent ACN, RT (25±3° C.)): 20000 to 40000 µg/mL (≈ 43.6 to 87.2 mM); solubility ([1]; organic solvent or mixture, solvent Acetone, RT (25±3° C.)): 19000 to 38000 µg/mL (≈ 41.4 to 82.9 mM); solubility ([1]; organic solvent or mixture, solvent Anisole, RT (25±3° C.)): 2000 to 6700 µg/mL (≈ 4.36 to 14.6 mM); solubility ([1]; organic solvent or mixture, solvent Butyl acetate, RT (25±3° C.)): < 2400 µg/mL; solubility ([1]; organic solvent or mixture, solvent CHCl3, RT (25±3° C.)): > 40000 µg/mL; solubility ([1]; organic solvent or mixture, solvent DCM, RT (25±3° C.)): > 40000 µg/mL; solubility ([1]; organic solvent or mixture, solvent DMF, RT (25±3° C.)): > 38000 µg/mL; solubility ([1]; organic solvent or mixture, solvent DMSO, RT (25±3° C.)): > 48000 µg/mL; solubility ([1]; organic solvent or mixture, solvent Diethyleneglycol, RT (25±3° C.)): 2400 to 8000 µg/mL (≈ 5.23 to 17.4 mM); solubility ([1]; organic solvent or mixture, solvent Dimethoxyethane, RT (25±3° C.)): 6700 to 20000 µg/mL (≈ 14.6 to 43.6 mM); solubility ([1]; organic solvent or mixture, solvent EtOAc, RT (25±3° C.)): < 2000 µg/mL; solubility ([1]; organic solvent or mixture, solvent EtOH, RT (25±3° C.)): > 46000 µg/mL; solubility ([1]; organic solvent or mixture, solvent IPA, RT (25±3° C.)): 20000 to 40000 µg/mL (≈ 43.6 to 87.2 mM); solubility ([1]; organic solvent or mixture, solvent IPAc, RT (25±3° C.)): < 1900 µg/mL; solubility ([1]; organic solvent or mixture, solvent MEK, RT (25±3° C.)): 7700 to 23000 µg/mL (≈ 16.8 to 50.2 mM); solubility ([1]; organic solvent or mixture, solvent MIBK, RT (25±3° C.)): < 2200 µg/mL; solubility ([1]; organic solvent or mixture, solvent MTBE, RT (25±3° C.)): < 2200 µg/mL; solubility ([1]; organic solvent or mixture, solvent MeOH, RT (25±3° C.)): > 44000 µg/mL; solubility ([1]; organic solvent or mixture, solvent THF, RT (25±3° C.)): > 46000 µg/mL; solubility ([1]; organic solvent or mixture, solvent Toluene, RT (25±3° C.)): < 2000 µg/mL; solubility ([1]; organic solvent or mixture, solvent n-Butanol, RT (25±3° C.)): > 42000 µg/mL; solubility ([1]; organic solvent or mixture, solvent n-Heptane, RT (25±3° C.)): < 1900 µg/mL; solubility ([1]; organic solvent or mixture, solvent n-Hexane, RT (25±3° C.)): < 2200 µg/mL; solubility ([1]; water, solvent H2O, RT (25±3° C.)): < 2400 µg/mL

**Q.** With `CNC(=O)c1cc(F)c(-c2nc3cc(C)ccn3c2C[C@H]2CN(C(=O)OC)CCO2)c(F)c1` [Type A* family, methyl (S)-2-((2-(2,6-difluoro-4-(methylcarbamoyl)phenyl)-7-methylimidazo[1,2-a]pyridin-3-yl)methyl)morpholine-4-carboxylate] as the compound, how does the “crystal form after DVS test (XRPD)” value ([2]; 25° C., cycle ambient RH-95% RH-0% RH-30% RH, ambient humidity 61.5% RH at XRPD analysis) read?
**A.** Type A

**Q.** And the “crystal form after DVS test (XRPD)” value ([2]; 25° C., cycle ambient RH-95% RH-0% RH-95% RH, ambient humidity 66.3% RH at XRPD analysis)?
**A.** Type A1

**Q.** And the “crystal form after DVS test (XRPD)” value ([2]; 40° C., cycle ambient RH-95% RH-0% RH-95% RH, ambient humidity 69.5% RH at XRPD test)?
**A.** Type A1

**Q.** What about the “water uptake, experimental DVS results” value ([2]; at 100% RH at 25° C.) of the same compound?
**A.** 4.1-4.2%

**Q.** What about the “theoretical maxima water uptake” value [3] of the same compound?
**A.** 3.9%
